Results published in US11352360B2, “TGF-beta inhibitors” (Rigel Pharmaceuticals, Inc., priority 2015, dated 2022).

Assays:
[1] = tested on: TGF-β signaling (p-SMAD-3 Ser423/425); assay: AlphaScreen SureFire SMAD3 (p-Ser423/425) assay, TGF-β-stimulated; format: cell-based; details: inhibition of TGF-β signaling, pSMAD, MPC-11
[2] = tested on: GDF8 signaling (p-SMAD-3 Ser423/425); assay: AlphaScreen SureFire SMAD3 (p-Ser423/425) assay, GDF8-stimulated; format: cell-based; details: inhibition of GDF8 signaling, pSMAD, MPC11; read-out: GDF8 (GDF pSMAD (MPC11))

IC50 [1]: 160 nM | IC50 [2]: 25.6 nM
SMILES: COc1ccc(-c2nc(N)sc2-c2ccc3[nH]ncc3c2)cc1 [Compound 157, 5-(1H-indazol-5-yl)-4-(4-methoxyphenyl)thiazol-2-amine]
